Measured values: ChEMBL document CHEMBL5584212, “Characterization of the G-quadruplexes in the transthyretin gene and its role in silencing transthyretin mRNA transcription” (Bioorg Med Chem Lett, 2024)
Calls of active or inactive are those of the source. The calls are words filed in the database; no cut-off is given here.

Assays:
Quadruplex DNA [1] = assay: Binding affinity to TTRG3 G-quadruplex (unknown origin) assessed as dissociation constant by fluorescence spectroscopy; assay type: nucleic-acid assay
Quadruplex DNA [2] = assay: Stabilization of TTRG3 G-quadruplex (unknown origin) assessed as melting temperature in presence of K+ by circular dichroism analysis; assay type: nucleic-acid assay
Quadruplex DNA [3] = assay: Stabilization of TTRG3 G-quadruplex (unknown origin) assessed as change in melting temperature in presence of K+ by circular dichroism analysis; assay type: nucleic-acid assay
Quadruplex DNA [4] = assay: Binding affinity to parallel TTRG1 G-quadruplex (unknown origin) assessed as formation of anti-parallel G-quadruplex formation in presence of 1 mM K+ by circular dichroism spectra analysis; assay type: nucleic-acid assay
Quadruplex DNA [5] = assay: Binding affinity to parallel TTRG1 G-quadruplex (unknown origin) assessed as formation of anti-parallel G-quadruplex formation in presence of 100 mM K+ by circular dichroism spectra analysis; assay type: nucleic-acid assay
Quadruplex DNA [6] = assay: Binding affinity to parallel TTRG3 G-quadruplex (unknown origin) assessed as formation of anti-parallel G-quadruplex formation in presence of 100 mM K+ by circular dichroism spectra analysis; assay type: nucleic-acid assay
Quadruplex DNA [7] = assay: Stabilization of parallel TTRG3 G-quadruplex (unknown origin) by CD spectra analysis; assay type: nucleic-acid assay
Quadruplex DNA [8] = assay: Binding affinity to TTRG3 G-quadruplex (unknown origin) assessed as increase in fluorescence by measuring red shift at 1 uM by UV-Visible spectrophotometric analysis; assay type: nucleic-acid assay
Quadruplex DNA [9] = assay: Binding affinity to TTRG3 G-quadruplex (unknown origin) assessed as hyperchromic shift by measuring increase in absorbance intensity at 1 uM by UV-Visible spectrophotometric analysis; assay type: nucleic-acid assay
Quadruplex DNA [10] = assay: Binding affinity to TTRG3 G-quadruplex (unknown origin) assessed as increase in fluorescence intensity at 2 uM by fluorescence titration spectra analysis; assay type: nucleic-acid assay
HepG2 [11] = assay: Cytotoxicity against human HepG2 cells at 50 uM by CCK-8 assay relative to control; assay type: toxicity, cell-based; conditions: hepg2, 50 µM
HepG2 [12] = assay: Induction of apoptosis in human HepG2 cells at 20 uM incubated for 48 hrs by calcein-AM/PI staining based analysis; assay type: functional, cell-based
HepG2 [13] = assay: Downregulation of TTR mRNA expression in human HepG2 cells by RT-PCR analysis; assay type: functional, cell-based

SMILES	Kd (Quadruplex DNA [1])	Tm (Quadruplex DNA [2])	ΔTm (Quadruplex DNA [3])	Activity (Quadruplex DNA [4])	Activity (Quadruplex DNA [5])	Activity (Quadruplex DNA [6])	Activity (Quadruplex DNA [7])	Activity (Quadruplex DNA [8])	Activity (Quadruplex DNA [9])	Activity (Quadruplex DNA [10])	Activity (HepG2 [11])	Activity (HepG2 [12])	Activity (HepG2 [13])
CN1/C(=C/c2cc[n+](C)c3ccccc23)Sc2ccccc21.Cc1ccc(S(=O)(=O)[O-])cc1	167 nM	53.3 °C	5.4 °C	Active	inactive	inactive	Active	Active	Active	Active	85%	inactive	
C[n+]1ccc(-c2c3nc(c(-c4cc[n+](C)cc4)c4ccc([nH]4)c(-c4cc[n+](C)cc4)c4ccc([nH]4)c(-c4cc[n+](C)cc4)c4nc2C=C4)C=C3)cc1		69.4 °C	21.5 °C	Active	inactive	inactive	Active	Active	Active	inactive		inactive	Dose-Dependent Effect
C[n+]1ccc(-c2c3nc(c(-c4cc[n+](C)cc4)c4ccc([nH]4)c(-c4cc[n+](C)cc4)c4nc(c(-c5cc[n+](C)cc5)c5ccc2[nH]5)C=C4)C=C3)cc1.Cc1ccc(S(=O)(=O)[O-])cc1.Cc1ccc(S(=O)(=O)[O-])cc1.Cc1ccc(S(=O)(=O)[O-])cc1.Cc1ccc(S(=O)(=O)[O-])cc1	148 nM										85%		
CCC1=C(C)c2cc3[nH]c(cc4nc(cc5c(CC)c(C)c(cc1n2)n5C)C(C)=C4CCC(=O)O)c(CCC(=O)O)c3C	5.3 nM	64 °C	16.1 °C	Active	inactive	inactive	Active	Active	Active	Active	85%	inactive	
CN(C)c1ccc(Nc2c3ccc(NC(=O)CCN4CCCC4)cc3nc3cc(NC(=O)CCN4CCCC4)ccc23)cc1		54.8 °C	6.9 °C	Active	inactive	inactive	Active	inactive	inactive	inactive	85%	inactive	Dose-Dependent Effect
